From patent US20230270773A1, “METHODS OF TREATING CANCER WITH A STING AGONIST” (Immunesensor Therapeutics, Inc., priority 2019, published 2023)
Entries after “also recorded” stand apart in the source; their conditions may differ.

What was measured:
AG104Ld (fibrosarcoma) = test: AG104LD PD-L1 antibody-resistant tumor model; type: in vivo, B6C3F1 mice; settings: Compound A 0.5 mg/kg SC, days 4, 7, 11, 14, 18, 21; PD-L1 antibody 200 µg
Protocol: (§1) Compound A was evaluated alone and in combination with 200 µg of the PD-L1 antibody used in Example 6 in immune checkpoint blockade-resistant tumors. In these studies, mice were implanted with LL2 (lung cancer), 4T1 (breast cancer), AG104Ld (fibrosarcoma), and AG104A (fibrosarcoma) tumors. Following implantation, the animals were dosed intratumorally or subcutaneously with 0.5 mg/kg of Compound A alone or in combination with the PD-L1 antibody, as shown in the table below: […]

IFNβ and other cytokines = test: Cytokine production induced in mice; type: in vivo, C57BL/6 mice
Protocol: The pharmacokinetic/pharmacodynamic properties of Compound A were evaluated in C57BL/6 mice following dosing by subcutaneous, intramuscular, or intravenous routes of administration. Blood was collected post-dosing for the measurement of Compound A and cytokine levels in plasma.

B16F10 melanoma = B16F10 melanoma syngeneic tumor model; type: in vivo, C57BL/6 mice
Protocol: To assess therapeutic activity of Compound A, C57BL/6 immune competent mice received subcutaneous implants of B16F10 melanoma cells on the right flank. Five days later, when tumor volumes were between 50 and 100 mm^3, the mice were intratumorally dosed with 0.1, 0.3, or 1.0 µg (equivalent to 0.005, 0.015, or 0.05 mg/kg) of Compound A alone, or in combination with 200 µg of PD-L1 antibody (clone 10F.9G2 available from Bio-X-Cell (catalog # BE0101)). Dosing was repeated every 3-4 days for 4 total doses. […] Once again, the effect was enhanced when Compound A was administered together with the PD-L1 antibody.

B16 melanoma = test: Abscopal effect, B16 melanoma bilateral tumor model; type: in vivo, mice; settings: intratumoral into primary tumor, 0.15 and 0.5 mg/kg
Protocol: (§2) An abscopal effect is an immune-mediated phenomenon wherein direct treatment of a primary tumor can lead to a response in a distant tumor. The potential abscopal effect of Compound A was evaluated in B16 melanoma and AG104A fibrosarcoma tumor models evaluating mice bearing tumors on both right flank (primary tumor) and left flank (secondary tumor). In both models, Compound A was administered intratumorally into the primary tumor on days 5, 8, 11 and 15 after tumor inoculation. The secondary tumor was not treated.

AG104A fibrosarcoma = test: Abscopal effect, AG104A fibrosarcoma bilateral tumor model; type: in vivo, C3B6F1 mice; settings: intratumoral into primary tumor, PD-L1 antibody 200 µg
Protocol: C3B6F1 mice (N=8) bearing AG104A tumors on both left and right flanks were treated intratumorally on the right flank (primary) with Compound A on Days 5, 8, 11, and 15 after tumor inoculation. Tumors on the left flank (distant) were not treated.
as §2

[1] = Pharmacokinetics after intratumoral administration in B16F10 tumor bearing mice; type: in vivo; settings: female B16F10 tumor bearing mice
Protocol: (§3) The nonclinical pharmacokinetics (PK) of subcutaneously, intravenously, or intratumorally administered Compound A was investigated in mice at the doses of 0.1 and/or 0.5 mg/kg.

Protein binding in vitro = type: in vitro ADME; settings: human
[2] = Metabolic stability in in vitro systems; type: in vitro ADME, and monkey; settings: human, rat, mouse, dog, monkey
[3] = Cynomolgus monkey toxicity and toxicokinetics, subcutaneous (Phases I-III, priming dose); type: in vivo, cynomolgus monkeys
Protocol: Male and female cynomolgus monkeys were assigned to groups and doses of Compound A were administered. Animals were dosed via subcutaneous injection at a volume of 2 mL/kg. The vehicle control article/diluent was phosphate-buffered saline (PBS).

[4] = Pharmacokinetics in mice, subcutaneous vs intravenous; settings: mouse, in vivo
Protocol: as §3

MC38 (colon) = test: MC38 syngeneic tumor model; type: in vivo, mouse
4T1 (breast cancer) = test: 4T1 PD-L1 antibody-resistant tumor model; type: in vivo, BALB/c mice
Protocol: as §1

[5] = Toxicological studies in the rat; type: in vivo
From the text: The toxicological evaluations of Compound A included studies in the rat and cynomolgus monkey (non-human primate [NHP]) and should be relevant to assessing potential human risk, as the STING pathway, the target of Compound A, is conserved across species.
The non-good laboratory practice (GLP) studies in the rat and NHP covered a broad range of doses and regimens. The objective of these studies was to evaluate the effects of Compound A following multiple ascending doses, single doses, and multiple doses.

In the case of `Nc1nc2c(ncn2[C@@H]2O[C@@H]3COP(=O)(O)OC4C(O)[C@H](n5cnc6c(N)ncnc65)O[C@@H]4COP(=O)(O)OC2C3OCC(F)(F)F)c(=O)[nH]1` (some centres unmarked) [Compound A], the “efficacy (tumor growth and survival)” value (AG104Ld (fibrosarcoma)) is reported as “suppressed tumor growth and prolonged mouth survival”, the cytokine induction (IFNβ and other cytokines; 0.50 mg/kg) is reported as “very low levels of cytokines” and the IFNβ in blood (IFNβ and other cytokines; 3 hours post dosing) is reported as “High levels of IFNβ”. The “IFNβ levels in blood” value (IFNβ and other cytokines; 12 hours post dosing) was “near the BLOQ”, the cytokine induction (IFNβ and other cytokines; dose levels that showed significant antitumor efficacy) was “only induced low levels of cytokine” and the “time at which cytokine production was seen” value (IFNβ and other cytokines; following administration) was 3 to 6 h. For the same compound, the “time to decrease of cytokines to BLOQ” value (IFNβ and other cytokines; following administration) was ≤ 12 h, the “induction of IFNβ and other cytokines” value (IFNβ and other cytokines; subcutaneous 0, 0.15, 0.50, 1.50, 5, 15, 50 mg/kg, 3 and 6 hours post injection) was “dose-dependent induction of IFNβ” and the “efficacious dose range (dose-dependent)” value (B16F10 melanoma) was 0.1 to 10 µg. The “tumor growth and survival” value (B16F10 melanoma; 0.005 mg/kg) was “sufficient to inhibit tumor growth and prolong survival”, the tumor volume (B16F10 melanoma; Compound A 0.1, 0.3 or 1.0 µg intratumoral, PD-L1 antibody 200 µg, FIG. 3 Panels A-C) was “significantly reduced tumor volume at all dose levels” and the survival time (B16F10 melanoma; Compound A 0.1, 0.3 or 1.0 µg intratumoral, PD-L1 antibody 200 µg, FIG. 3 Panels E-G) was “significantly increased the survival time”. The tumor growth inhibition (B16F10 melanoma; intratumoral) was “highly effective in inhibiting tumor growth”, the “tumor growth and survival” value (B16F10 melanoma; intratumoral, compared to controls) was “dose-dependent suppression of tumor growth and prolonged survival” and the “lowest dose with decreased tumor growth and prolonged survival” value (B16F10 melanoma; intratumoral, every 3-4 days, 4 doses (0.1 µg/mice)) was 0.005 mg/kg. The anti-tumor efficacy (B16F10 melanoma; subcutaneous) was “also effective”, the survival (B16 melanoma) was “survival was significantly prolonged” and the “tumor growth/volume, primary and distant tumors” value (B16 melanoma; days 5, 8, 11, 15) was “tumor growth was suppressed in both primary and distant tumors; also recorded: significantly decreased”. The “tumor growth/volume, primary and distant tumors” value (AG104A fibrosarcoma; 0.15 and 0.5 mg/kg, days 5, 8, 11, 15) was “tumor growth was suppressed in both primary and distant tumors; also recorded: significantly decreased”, the survival (AG104A fibrosarcoma) was “survival was significantly prolonged; also recorded: increases the survival” and the Frel in plasma ([1]; intratumoral 0.1 mg/kg) was 105%. The Frel in plasma ([1]; intratumoral 0.5 mg/kg) was 112%, the fraction unbound (Protein binding in vitro) was 0.511 and the half-life [2] was > 120 min. The morbidity ([3]; 10 mg/kg/dose, Phase I) was “Morbidity was observed within 1 day”, the “exposure (mean Cmax, AUC0-2, AUC0-8, AUC0-24) vs dose” value ([3]; 0.3 to 3 mg/kg/day, Day 1 of Phase II) was “generally dose-proportional” and the compound-related findings ([3]; 0.6 or 1.0 mg/kg/day) was “limited to a transient body temperature increase and mild to moderate clinical and anatomic pathology findings”. The tolerability ([3]; 3 weekly doses of 0.6 mg/kg without a priming dose) was “tolerated”, the tolerability ([3]; 3 weekly doses of 1.0 mg/kg/day preceded by a priming dose of 0.1 mg/kg) was “tolerated” and the “tolerated dose on escalation” value ([3]; Phase I, subcutaneous dose escalation) was “up to 3.0 mg/kg/dose”. The tolerability ([3]; Phase II, 3 mg/kg in naïve animals) was “not tolerated and led to clinical observations of morbidity or death within 1 day of dosing”, the tolerability ([3]; Phase II, 3 weekly administrations of 0.3 mg/kg) was “tolerated” and the survival of animals ([3]; Phase III, three weekly doses of 0.6 or 1.0 mg/kg/day) was “survived until scheduled sacrifice”. For the same compound, the “sex differences in mean Cmax, AUC0-2, AUC0-8, AUC0-24” value ([3]; monkeys) was “less than 2 fold”, the accumulation ([3]; multiple doses of 0.3 mg/kg/day) was “No accumulation” and the “dose not tolerated (acute morbidity and/or death)” value ([3]; naïve animals) was ≥ 3.0 mg/kg. The “cause of acute morbidity and/or death” value ([3]; ≥ 3.0 mg/kg, naïve animals) was “pulmonary edema”, the bioavailability ([4]; sc, subcutaneous 0.5 mg/kg, male mice, subcutaneous AUC0-t vs intravenous AUC0-t, read-out: bioavailability (F)) was 121% and the clearance ([4]; mice, systemic compartment, read-out: clearance (CL) (converted)) was 16.8 mL/min/kg. The half-life ([4]; mice, read-out: t½) was ~15 min, the Vd ([4]; mice, read-out: volume of distribution (Vss)) was 0.255 L/kg and the tumor growth inhibition (MC38 (colon); intratumoral) was “highly effective in inhibiting tumor growth”. The anti-tumor efficacy (MC38 (colon); subcutaneous) was “also effective”, the “efficacy (tumor growth and survival)” value (4T1 (breast cancer); Compound A 0.5 mg/kg IT, days 5, 8, 11, 15, PD-L1 antibody 200 µg) was “suppressed tumor growth and prolonged mouth survival” and the tumor growth inhibition (4T1 (breast cancer); intratumoral) was “highly effective in inhibiting tumor growth”. The mortality ([5]; 3.0 mg/kg dose level) was “Mortality was also seen”, the mortality ([5]; GLP rat study, high doses group 10 and 30 mg/kg) was “Mortality was seen” and the moribundity and death ([5]; mid and high dose levels, rat study) was “Moribundity and death was seen”. For the same compound, the toxicokinetic findings ([5]; rat and NHP toxicology studies, multiple dose) was “no sex related differences, dose proportionality, and no accumulation” and the cause of deaths ([5]; rat, highest dose levels) was “pulmonary edema”.
